In assay [1] the test system is trypsin. In words: mPEG-PL-Cy5.5 probe activation by pancreatic enzymes with or without SPINK1. In kind it is biochemical. To be noted: 0.2 µM probe, 100 nM enzyme, 1 µM SPINK1. As for the experimental part: All enzyme assays were conducted in 384-well plates with a final substrate ( = mPEG-PL-Cy5.5 probe) concentration of 0.2 µM diluted in the appropriate assay buffer in a final assay volume of 25 µl. Enzyme and, in cases where applied, SPINK-1 (final assay concentration: 1 µM) were pre-incubated for one hour at room temperature. Subsequently substrate was added and incubated for 3 h at 37°C prior to measurement. All enzymes were either commercially obtained or prepared as described previously, [17], [18], [19].
Enzyme, SPINK-1 and substrate solutions were transferred to 384-well plates by means of a CyBi Well pipettor (CyBio, Jena, Germany). Plate measurements were conducted by the means of a Safire2 microplate reader (TECAN, Maennedorf, Switzerland) and wavelengths of 680 nm and 700 nm were taken for fluorescence excitation and emission acquisition, respectively. The bandwidths were set to 10 nm in both the excitation and the emission path. The fluorescence in each well was excited by three flashes per measurement.

The next assay has as its target h cathepsin B (Homo sapiens, UniProt P07858). In words: protease selectivity panel, enzyme activity assay. The format is biochemical. To be noted: 1 h pre-incubation RT. The text has this: (§1) The three drug-like compounds tested in the optical molecular imaging model were characterized for selectivity against a panel of recombinant proteases available at Novartis. The biochemical enzyme activity assays were based on the cleavage of peptidic substrates that are fluorescently labeled. In case of rhodamine-110 label fluorescence intensity and in case of PT14 label fluorescence lifetime was used as readout. The effect of the compound on the enzymatic activity was obtained from the linear part of the substrate cleavage progress curve at substrate concentrations well below KM, typically at 1 µM. All enzyme assays were conducted in 384-well plates with a final assay volume of 25 µl. Enzyme and compound (11 different concentrations from 100 µM to 0.0003 µM) were pre-incubated for one hour at room temperature (RT). Subsequently substrate was added and incubated for 1 h at RT prior to measurement.

Another assay concerns the target h cathepsin C (Homo sapiens, UniProt P53634). The assay is described as follows: protease selectivity panel, enzyme activity assay. In kind it is biochemical. The settings on record: 1 h pre-incubation RT.
Description: as §1

The target in the next assay is h cathepsin G (Homo sapiens, UniProt P08311). The assay is described as follows: protease selectivity panel, enzyme activity assay. In kind it is biochemical. The settings on record: 1 h pre-incubation RT.
Sequence of h cathepsin G (P08311 21-255): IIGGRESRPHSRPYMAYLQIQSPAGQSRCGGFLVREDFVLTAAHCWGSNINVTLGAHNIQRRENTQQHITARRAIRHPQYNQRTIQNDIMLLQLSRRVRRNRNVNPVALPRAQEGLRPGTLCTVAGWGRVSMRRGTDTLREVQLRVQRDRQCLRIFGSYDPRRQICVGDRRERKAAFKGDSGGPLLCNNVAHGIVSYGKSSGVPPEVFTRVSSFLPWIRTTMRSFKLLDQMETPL
Description: as §1

A further assay addresses h cathepsin K (Homo sapiens, UniProt P43235). The assay is described as follows: protease selectivity panel, enzyme activity assay. In kind it is biochemical. To be noted: 1 h pre-incubation RT.
Description: as §1

A further assay deals with h cathepsin L (Homo sapiens, UniProt P07711). In words: protease selectivity panel, enzyme activity assay. The format is biochemical. To be noted: 1 h pre-incubation RT.
Sequence of h cathepsin L (P07711 114-333): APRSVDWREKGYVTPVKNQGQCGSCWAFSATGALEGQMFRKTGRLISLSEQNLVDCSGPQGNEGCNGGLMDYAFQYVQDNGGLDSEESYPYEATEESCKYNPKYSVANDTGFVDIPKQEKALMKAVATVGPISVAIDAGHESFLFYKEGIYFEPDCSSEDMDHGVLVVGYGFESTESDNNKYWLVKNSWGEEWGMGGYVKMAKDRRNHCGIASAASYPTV
Description: as §1

Another assay concerns the target h cathepsin S (Homo sapiens, UniProt P25774). In words: protease selectivity panel, enzyme activity assay. The format is biochemical. The settings on record: 1 h pre-incubation RT.
Description: as §1

The next assay addresses h cationic trypsin (Homo sapiens, UniProt P07477). The assay is described as follows: protease selectivity panel, enzyme activity assay. In kind it is biochemical. To be noted: 1 h pre-incubation RT.
Description: as §1

Another assay deals with h chymase (Homo sapiens, UniProt P23946). The assay is described as follows: protease selectivity panel, enzyme activity assay. The settings on record: 1 h pre-incubation RT. The format is biochemical.
Sequence of h chymase (P23946 22-247): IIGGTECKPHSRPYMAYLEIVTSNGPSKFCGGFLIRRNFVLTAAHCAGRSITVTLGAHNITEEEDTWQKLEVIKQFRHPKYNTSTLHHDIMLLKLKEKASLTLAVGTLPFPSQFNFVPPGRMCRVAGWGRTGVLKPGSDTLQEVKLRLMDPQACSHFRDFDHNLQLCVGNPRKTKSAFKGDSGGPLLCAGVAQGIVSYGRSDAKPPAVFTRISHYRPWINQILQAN
Description: as §1

The next assay addresses h factor VIIa (Homo sapiens, UniProt P08709). The assay is described as follows: protease selectivity panel, enzyme activity assay. In kind it is biochemical. The settings on record: 1 h pre-incubation RT.
Description: as §1

Another assay deals with h factor XIIa (Homo sapiens, UniProt P00748). The assay is described as follows: protease selectivity panel, enzyme activity assay. In kind it is biochemical. The settings on record: 1 h pre-incubation RT.
Sequence of h factor XIIa (P00748 373-615 limits assumed): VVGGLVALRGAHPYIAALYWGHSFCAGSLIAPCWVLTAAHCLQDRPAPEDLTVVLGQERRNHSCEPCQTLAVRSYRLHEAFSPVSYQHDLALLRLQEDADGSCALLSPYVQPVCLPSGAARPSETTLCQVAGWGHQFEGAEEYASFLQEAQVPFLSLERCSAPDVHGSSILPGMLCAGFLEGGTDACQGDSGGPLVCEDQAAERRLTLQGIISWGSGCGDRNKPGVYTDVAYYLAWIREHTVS
Description: as §1

The target in another assay is h factor XIa (Homo sapiens, UniProt P03951). The assay is described as follows: protease selectivity panel, enzyme activity assay. In kind it is biochemical. To be noted: 1 h pre-incubation RT.
Sequence of h factor XIa (P03951 388-625 limits assumed): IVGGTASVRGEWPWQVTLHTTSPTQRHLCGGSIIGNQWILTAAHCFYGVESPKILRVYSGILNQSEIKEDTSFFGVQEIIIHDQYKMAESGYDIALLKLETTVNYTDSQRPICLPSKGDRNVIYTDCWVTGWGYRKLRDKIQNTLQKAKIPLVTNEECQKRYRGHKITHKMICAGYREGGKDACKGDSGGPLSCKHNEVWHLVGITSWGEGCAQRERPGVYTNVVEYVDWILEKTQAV
Description: as §1

A further assay addresses h factor Xa (Homo sapiens, UniProt P00742). In words: protease selectivity panel, enzyme activity assay. The settings on record: 1 h pre-incubation RT. The format is biochemical.
Description: as §1

A further assay addresses h kallikrein 1 (Homo sapiens, UniProt P06870). The assay is described as follows: protease selectivity panel, enzyme activity assay. In kind it is biochemical. The settings on record: 1 h pre-incubation RT.
Description: as §1

The next assay deals with h kallikrein 5 (Homo sapiens, UniProt Q9Y337). In words: protease selectivity panel, enzyme activity assay. The format is biochemical. The settings on record: 1 h pre-incubation RT.
Sequence of h kallikrein 5 (Q9Y337 23-293): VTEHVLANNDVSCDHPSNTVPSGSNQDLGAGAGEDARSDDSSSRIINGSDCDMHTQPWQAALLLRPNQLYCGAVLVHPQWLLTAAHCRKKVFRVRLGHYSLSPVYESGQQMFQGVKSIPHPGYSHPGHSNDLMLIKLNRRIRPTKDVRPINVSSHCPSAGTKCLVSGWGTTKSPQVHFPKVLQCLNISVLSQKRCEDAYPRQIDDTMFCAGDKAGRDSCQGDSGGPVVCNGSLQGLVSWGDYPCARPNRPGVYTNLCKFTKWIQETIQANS
Description: as §1

The target in a further assay is h kallikrein 7 (Homo sapiens, UniProt P49862). The assay is described as follows: protease selectivity panel, enzyme activity assay. The settings on record: 1 h pre-incubation RT. In kind it is biochemical.
Sequence of h kallikrein 7 (P49862 30-253): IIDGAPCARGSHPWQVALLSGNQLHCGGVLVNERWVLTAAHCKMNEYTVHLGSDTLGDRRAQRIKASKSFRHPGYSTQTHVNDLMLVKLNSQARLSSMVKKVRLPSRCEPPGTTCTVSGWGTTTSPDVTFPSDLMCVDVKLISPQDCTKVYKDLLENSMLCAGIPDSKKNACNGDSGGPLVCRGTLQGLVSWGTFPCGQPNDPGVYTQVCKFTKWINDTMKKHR
Description: as §1

Another assay concerns the target h matriptase (Homo sapiens, UniProt Q9Y5Y6). The assay is described as follows: protease selectivity panel, enzyme activity assay. In kind it is biochemical. To be noted: 1 h pre-incubation RT.
Description: as §1

In a further assay the target is h neutrophil elastase (Homo sapiens, UniProt P08246). In words: protease selectivity panel, enzyme activity assay. In kind it is biochemical. The settings on record: 1 h pre-incubation RT.
Sequence of h neutrophil elastase (P08246 30-267): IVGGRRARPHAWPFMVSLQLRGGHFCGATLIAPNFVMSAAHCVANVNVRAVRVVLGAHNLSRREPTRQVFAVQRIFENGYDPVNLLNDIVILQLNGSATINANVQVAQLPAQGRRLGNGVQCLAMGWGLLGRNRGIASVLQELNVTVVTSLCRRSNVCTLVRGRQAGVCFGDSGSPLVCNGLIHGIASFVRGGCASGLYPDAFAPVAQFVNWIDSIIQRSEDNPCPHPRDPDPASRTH
Description: as §1

A further assay concerns the target h plasma kallikrein (Homo sapiens, UniProt P03952). The assay is described as follows: protease selectivity panel, enzyme activity assay. The settings on record: 1 h pre-incubation RT. The format is biochemical.
Description: as §1

A further assay deals with h proteinase 3 (Homo sapiens, UniProt P24158). The assay is described as follows: protease selectivity panel, enzyme activity assay. In kind it is biochemical. To be noted: 1 h pre-incubation RT.
Sequence of h proteinase 3 (P24158 28-256): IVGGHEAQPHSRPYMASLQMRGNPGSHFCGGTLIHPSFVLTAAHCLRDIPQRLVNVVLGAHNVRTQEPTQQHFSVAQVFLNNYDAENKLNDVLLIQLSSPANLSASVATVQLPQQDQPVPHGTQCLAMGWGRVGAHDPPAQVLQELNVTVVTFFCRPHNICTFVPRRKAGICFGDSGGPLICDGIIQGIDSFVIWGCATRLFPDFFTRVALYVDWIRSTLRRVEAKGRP
Description: as §1

Another assay concerns the target h chymotrypsin. In words: protease selectivity panel, enzyme activity assay. The format is biochemical, human. To be noted: 1 h pre-incubation RT.
Description: as §1

Another assay has as its target h pancreatic elastase. The assay is described as follows: protease selectivity panel, enzyme activity assay. In kind it is biochemical, human. To be noted: 1 h pre-incubation RT.
Description: as §1

For assay [2], the system named is trypsin activity in rat pancreas. In words: in vivo optical imaging of activatable probe signal in pancreas, caerulein-injection pancreatitis model. To be noted: Camostat 300 mg/kg orally; vs untreated caerulein animals; P<0.001. As to the method:
280–320 g female Sprague Dawley rats were received from Charles Rivers Laboratory. Animals were maintained in a facility with a controlled temperature (21–24°C) and lighting (12∶12 h light: dark cycle). Animals were placed on a chlorophyll-free diet (Harlan TK2916) 10 days prior and for the duration of the imaging study to reduce the amount of autofluorescence and had free access to drinking water. One day prior to the experiment, animals were shaved at the abdomen for imaging studies. The pancreatitis model was induced by hyperstimulation with the cholecystokinin (CCK) analog caerulein (Sigma-Aldrich, St. Louis, MO). […]
(§2) In vivo optical imaging studies were conducted using a spectral imaging system, Maestro (Perkin Elmer, Boston, MA). […] Animals were imaged before the start of the study for background/autofluorescence, and at 20 minutes after the mPEG-PL-Cy5.5 probe administration for basal increase in fluorescence due to probe administration. […]
Region of the pancreas and liver were determined and defined from whole body clean images acquired after sacrificing the animals, and used on all corresponding in vivo images in the same animal. Fluorescent intensity at various time points from the same animal were normalized by fluorescence intensity determined before the start of the caerulein insult and the change in signal intensity was then plotted as a function of time.

The test system is the same in assay [3]. The assay is described as follows: ex vivo fluorescence imaging of excised pancreas (total signal intensity of activated probe). The format is in vivo. The settings on record: Camostat 300 mg/kg orally; vs untreated animals; P<0.01. As to the method:
280–320 g female Sprague Dawley rats were received from Charles Rivers Laboratory. Animals were maintained in a facility with a controlled temperature (21–24°C) and lighting (12∶12 h light: dark cycle). Animals were placed on a chlorophyll-free diet (Harlan TK2916) 10 days prior and for the duration of the imaging study to reduce the amount of autofluorescence and had free access to drinking water. One day prior to the experiment, animals were shaved at the abdomen for imaging studies. The pancreatitis model was induced by hyperstimulation with the cholecystokinin (CCK) analog caerulein (Sigma-Aldrich, St. Louis, MO). […] For studies with Novartis166 and Novartis848, varying concentrations, in a solution, were administered intraperitonealy (IP) only once, one hour before caerulein administration. Self-quenched protease activatable mPEG-PL-Cy5.5 probe was administered to all animals via the tail vein at a dose of 80 nmol/kg 40 minutes prior to the start of caerulein administration for measuring the amount of activated trypsin in the pancreas. […]
as §2

Assay [4] has as its system rat caerulein-injection pancreatitis model. The assay is described as follows: in vivo edema imaging with blood pool agent Angiosense 680. To be noted: Camostat 300 mg/kg orally; three caerulein doses SC.
For assay [5], the system named is trypsin. In words: assessment of trypsin concentration in pancreas extracts. In kind it is in vivo, rat. To be noted: Camostat 300 mg/kg orally; vs untreated saline animals. As for the experimental part:
The pancreas was removed from the euthanized animals, weighted and transferred into Dispomix tubes (Miltenyi Biotec, Bergisch Gladbach, Germany). After the addition of ice-cold PBS buffer (1 µl per […]), the pancreas was homogenized with a gentleMACS™ Dissociator (Miltenyi Biotec, Bergisch Gladbach, Germany). The homogenate was centrifuged at 4°C and 20,000 g for 10 min. The supernatant was stored at −20°C. The activity assay was performed at room temperature in 384-well plates in a total assay volume of 20 µl per well. For fluorescence quantification a Safire2 (Tecan, Maennedorf, Switzerland) instrument was used with fluorescence excitation and emission wavelengths of 485 nm and 535 nm, respectively. 10 µl of dilutions of extracts (typical range: 1∶500 to 1∶2,000) were transferred to 384 well assay plates. […] The enzymatic activity in the pancreatic extract was obtained from the linear progression curves and determined after one hour. Signal-to-background (S/B) values within the linear range of the assay signal were selected to calculate the trypsin concentrations of the extract analyzed. […] The amount of trypsin was calculated by transforming S/B levels obtained in the activity assay of extract dilutions fulfilling initial enzyme velocity criteria into trypsin concentration values via a calibration curve using recombinant rat trypsin S1-94.

Bounds are passed on as bounds.

Usually IC50 stands for the concentration that gives 50% inhibition.

Sequence of h kallikrein 1 (P06870 25-262): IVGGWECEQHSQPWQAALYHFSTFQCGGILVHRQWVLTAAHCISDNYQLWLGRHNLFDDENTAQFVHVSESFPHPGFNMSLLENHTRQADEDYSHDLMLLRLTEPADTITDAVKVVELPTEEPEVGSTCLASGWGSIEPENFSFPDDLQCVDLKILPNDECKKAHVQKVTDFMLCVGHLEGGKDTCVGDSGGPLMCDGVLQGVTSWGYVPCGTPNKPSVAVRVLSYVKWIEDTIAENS
Sequence of h cathepsin S (P25774 115-331): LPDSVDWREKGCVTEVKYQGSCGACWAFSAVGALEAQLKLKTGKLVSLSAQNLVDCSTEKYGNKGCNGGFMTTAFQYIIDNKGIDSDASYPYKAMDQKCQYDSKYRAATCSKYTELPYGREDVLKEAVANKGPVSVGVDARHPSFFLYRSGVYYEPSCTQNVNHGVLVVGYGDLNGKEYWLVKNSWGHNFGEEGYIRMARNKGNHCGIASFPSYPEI
Sequence of h cathepsin C (P53634 25-463): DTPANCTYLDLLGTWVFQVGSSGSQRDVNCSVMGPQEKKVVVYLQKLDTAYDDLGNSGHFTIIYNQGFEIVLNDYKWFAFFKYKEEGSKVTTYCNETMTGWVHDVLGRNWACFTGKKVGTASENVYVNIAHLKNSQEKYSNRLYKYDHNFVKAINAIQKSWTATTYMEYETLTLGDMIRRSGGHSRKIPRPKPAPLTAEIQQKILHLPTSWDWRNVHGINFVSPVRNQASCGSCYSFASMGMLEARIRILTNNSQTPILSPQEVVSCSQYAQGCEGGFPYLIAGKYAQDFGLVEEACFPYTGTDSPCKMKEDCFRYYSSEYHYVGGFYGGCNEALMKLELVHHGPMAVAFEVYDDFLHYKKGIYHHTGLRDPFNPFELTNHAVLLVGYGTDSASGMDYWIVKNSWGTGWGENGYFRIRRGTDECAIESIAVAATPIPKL
Sequence of h cathepsin K (P43235 115-329): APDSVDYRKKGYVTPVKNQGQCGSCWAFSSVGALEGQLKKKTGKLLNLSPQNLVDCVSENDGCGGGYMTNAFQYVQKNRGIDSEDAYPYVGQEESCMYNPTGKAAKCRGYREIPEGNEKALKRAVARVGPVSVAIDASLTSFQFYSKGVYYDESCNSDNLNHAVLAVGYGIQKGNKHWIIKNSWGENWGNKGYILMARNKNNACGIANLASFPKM
Sequence of h factor Xa (P00742 235-488 limits assumed): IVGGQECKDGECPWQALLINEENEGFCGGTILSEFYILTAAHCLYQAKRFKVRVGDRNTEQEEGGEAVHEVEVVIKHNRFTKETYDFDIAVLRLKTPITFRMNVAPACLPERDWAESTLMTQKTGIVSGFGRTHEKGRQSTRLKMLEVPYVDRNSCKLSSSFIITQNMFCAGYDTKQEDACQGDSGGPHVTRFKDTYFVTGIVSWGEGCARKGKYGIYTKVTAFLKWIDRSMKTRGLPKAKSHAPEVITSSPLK
Sequence of h factor Xa (P00742 41-179 partner limits assumed): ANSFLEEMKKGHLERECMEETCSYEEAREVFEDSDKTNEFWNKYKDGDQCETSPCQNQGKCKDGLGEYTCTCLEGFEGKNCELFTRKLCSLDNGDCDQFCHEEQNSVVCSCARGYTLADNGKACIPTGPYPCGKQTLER
Sequence of h factor VIIa (P08709 213-466 limits assumed): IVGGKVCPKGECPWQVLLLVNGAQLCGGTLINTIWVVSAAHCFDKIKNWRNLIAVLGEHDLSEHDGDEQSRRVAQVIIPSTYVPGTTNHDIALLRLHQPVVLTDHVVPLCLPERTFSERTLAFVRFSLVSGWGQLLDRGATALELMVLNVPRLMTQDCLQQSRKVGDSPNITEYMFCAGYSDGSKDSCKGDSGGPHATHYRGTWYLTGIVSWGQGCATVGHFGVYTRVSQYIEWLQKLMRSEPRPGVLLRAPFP
Sequence of h factor VIIa (P08709 61-212 partner limits assumed): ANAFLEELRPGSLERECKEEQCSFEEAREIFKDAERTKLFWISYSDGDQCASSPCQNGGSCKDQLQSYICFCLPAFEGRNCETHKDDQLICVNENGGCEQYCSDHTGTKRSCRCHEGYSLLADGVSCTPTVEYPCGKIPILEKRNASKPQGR
Sequence of h plasma kallikrein (P03952 20-638): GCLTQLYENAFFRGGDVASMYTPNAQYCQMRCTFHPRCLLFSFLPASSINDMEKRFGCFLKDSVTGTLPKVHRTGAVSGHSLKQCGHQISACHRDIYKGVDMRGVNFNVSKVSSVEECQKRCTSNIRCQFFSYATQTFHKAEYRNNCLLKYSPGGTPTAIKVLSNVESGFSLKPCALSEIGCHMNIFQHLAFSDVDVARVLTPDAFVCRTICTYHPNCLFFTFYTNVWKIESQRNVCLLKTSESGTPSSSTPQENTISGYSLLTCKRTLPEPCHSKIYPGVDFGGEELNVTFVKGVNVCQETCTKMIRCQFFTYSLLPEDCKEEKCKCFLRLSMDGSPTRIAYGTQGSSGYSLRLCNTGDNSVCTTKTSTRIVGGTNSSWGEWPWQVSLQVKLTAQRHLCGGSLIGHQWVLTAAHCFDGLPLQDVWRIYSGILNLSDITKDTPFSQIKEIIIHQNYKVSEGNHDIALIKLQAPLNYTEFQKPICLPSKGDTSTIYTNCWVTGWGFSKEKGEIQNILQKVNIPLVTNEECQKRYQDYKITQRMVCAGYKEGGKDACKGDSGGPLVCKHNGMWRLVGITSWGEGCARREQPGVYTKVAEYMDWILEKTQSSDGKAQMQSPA

For the molecule “SPINK1: highly specific trypsin inhibiting protein; endogenous trypsin inhibitor Kazal type 1 (DSLGREAKCYNELNGCTKIYDPVCGTDGNTYPNECVLCFENRKRQTSILIQKSGPC; UniProt P00995 24-79, looked up)”, the “protease activation of mPEG-PL-Cy5.5 probe by trypsin in the presence of SPINK1” value in the assay with trypsin [1] is “suppressed to background levels”.

For the molecule `CN(C)C(=O)COC(=O)Cc1ccc(OC(=O)c2ccc(NC(=N)N)cc2)cc1` [Camostat], the IC50 on h cathepsin B is greater than 50 µM; on h cathepsin C it was greater than 50 µM; at h cathepsin G it was 44.6 µM; on h cathepsin K, greater than 50 µM; against h cathepsin L it was greater than 50 µM; at h cathepsin S it was greater than 50 µM. Moreover, the IC50 against h cationic trypsin is 0.0028 µM; against h chymase, greater than 50 µM; against h factor VIIa, 0.531 µM; on h factor XIIa, 8 µM; against h factor XIa, 0.008 µM; against h factor Xa, 6.6 µM. Besides, the 50% inhibitory concentration (IC50) on h kallikrein 1 is 72.4 µM; against h kallikrein 5, 0.1 µM; at h kallikrein 7 it was 41.5 µM; at h matriptase, 0.0065 µM; against h neutrophil elastase, 91.4 µM; against h plasma kallikrein, 0.002 µM. Besides, the concentration for half-maximal inhibition (IC50) is greater than 50 µM on h proteinase 3, 12.2 µM against h chymotrypsin and greater than 50 µM against h pancreatic elastase. In addition, the “in vivo mPEG-PL-Cy5.5 probe activation in pancreas” value in assay [2] is listed as “reduced probe activation”. For the same molecule, the “probe activation in dissected pancreas (ex vivo)” value in assay [3] is “suppressed”. Further, the “Angiosense 680 signal in pancreas (edema imaging)” value in assay [4] is “no signal enhancement”. Further, the “amount of enzymatically active trypsin in pancreas” value in the assay on trypsin [5] is “significant reduction in the amount of active trypsin”.

The record behind these values is PMC3569412, “In Vivo Imaging with Fluorescent Smart Probes to Assess Treatment Strategies for Acute Pancreatitis” (PLoS ONE, 2013).
